# Assay results from patent US7371766B2, “Curcumin analogs with anti-tumor and anti-angiogenic properties” (Emory University, priority 1999, dated 2008).
# Read-outs that look alike come from different tables or passages of the source.
# Key:
# RPMI-7951 human melanoma = assay: Neutral Red Assay, cell viability, RPMI-7951; conditions: for viability at 20 µM / viability at 5 µM: Homo sapiens; for Cell Viability / Neutral Red Uptake, %: RPMI-7951; for Cell Viability: DMSO = 100; for Neutral Red Uptake, %: 72 hours
# [1] = test system: Vascular Endothelial Growth Factor (VEGF) production by human melanoma cell line RPMI-7951; assay: VEGF ELISA, RPMI-7951; conditions: for activity at 20 µM / activity at 5 µM: Homo sapiens, RPMI-7951, 72 h, read-out: VEGF; for VEGF / VEGF ELISA: RPMI-7951; for VEGF ELISA: DMSO control 3713
# Method: RPMI-795 1, MDA-MB-231 and MDA-MB-435 cell lines were cultured in MEM-alpha medium (GIBCO-BRL, Long Island, N.Y.) containing 10% fetal bovine serum (RPMI-7951, MDA-MB-231) or 5% FBS (MDA-MB-435) at 37° C. and under 5% CO2/95% air. […] The cells were cultured in 48 well plates in all of the experiments described.
# A VEGF enzyme-linked immunosorbent assay (ELISA) was utilized to determine the effect of the compounds of the present invention on VEGF production of a variety of human cancer cell lines. For the VEGF assay, cells were plated at a concentration of 80,000 cells/well and cultured overnight. Compounds or vehicle (DMSO 0.1%) were then added and the plates were incubated for 72 hours. Supernatant was then collected from each well and frozen in a −80° C. freezer until needed. Cell viability was determined by Neutral Red Assay. VEGF ELISA Kit (R & D, Minneapolis, Minn.) was used to determine the amount of VEGF in the culture supernatants. The ELISA was carried out according to the manufacturer's procedure.
# [2] = test system: Vascular Endothelial Growth Factor (VEGF) production by human prostate cancer cell line PC-3; assay: VEGF ELISA, PC-3; assay type: cell-based; conditions: for VEGF (% of DMSO): DMSO = 100%
# [3] = test system: Vascular Endothelial Growth Factor (VEGF) production by human prostate cancer cell line DU-145; assay: VEGF ELISA, DU-145; assay type: cell-based; conditions: for VEGF (% of DMSO): DMSO = 100%
# [4] = test system: Tissue Factor (TF) production by human melanoma cell line RPMI-7951; assay: TF ELISA, RPMI-7951; assay type: cell-based
# Method: IMUBIND Tissue Factor ELISA Kit (American Diagnostica Inc, Greenwich, Conn.) was used to determine TF concentration in each sample. The ELISA was carried out according to manufacturer's procedure.
# [5] = RPMI-7951, read-out: Cell Viability
# [6] = Table 4, 20 μM, mean of triplicate and S.D.
# [7] = 20 μM, mean of triplicate and S.D., DMSO 2103 ± 100
# [8] = 20 μM, mean of triplicate and S.D., DMSO 18760 ± 2633
# [9] = Table 5, 5 μM, DMSO control 7054
# [10] = Table 5, 20 μM, DMSO control 7054
# [11] = 5 μM, DMSO control 4197 (EF-25: 1045)
# [12] = RPMI-7951, 72 h, read-out: Neutral Red Uptake, %
structure (smiles),measurement,setting,value
"CON=C(/C=C/c1ccccc1O)/C=C/c1ccccc1O [EF6, N-(Methoxy)-1,5-bis(2-hydroxyphenyl)penta-1,4-dien-3-imine]",viability at 20 µM,RPMI-7951 human melanoma; [5],72%
same,activity at 20 µM,[1],45%
O=S(=O)(NCc1ccccc1)NCc1ccccc1 [Compound A272],VEGF,"[2]; Table 4, 20 μM, DMSO = 100",89%
same,VEGF,[2]; [6],1864 ± 339 pg/mL
same,VEGF,"[3]; Table 4, 20 μM, DMSO = 100",129%
same,VEGF,[3]; [6],24155 ± 4635 pg/mL
COc1ccc(CCC(O)CCc2ccc(OC)c(OC)c2)cc1OC [B],VEGF (% of DMSO),[2]; 20 μM,(99%)
same,VEGF,[2]; [7],2168 ± 279 pg/mL
same,VEGF,"[2]; Table 4, 20 μM, DMSO = 100",103%
same,VEGF,[2]; [6],2168 ± 279 pg/mL
same,VEGF (% of DMSO),[3]; 20 μM,(82%)
same,VEGF,[3]; [8],15321 ± 5607 pg/mL
same,VEGF,"[3]; Table 4, 20 μM, DMSO = 100",82%
same,VEGF,[3]; [6],15321 ± 5607 pg/mL
COc1ccc(C=CC(=O)C=Cc2ccc(OC)cc2)cc1 [BA-4],TF,"[4]; 5 μM, DMSO = 100",100%
same,TF,"[4]; 20 μM, DMSO = 100",30%
same,TF,[4]; [9],7043 pg/mL
same,TF,[4]; [10],2120 pg/mL
same,Cell Viability,RPMI-7951 human melanoma; 5 μM,90%
same,Cell Viability,RPMI-7951 human melanoma; 20 μM,84%
same,VEGF,"[1]; 5 μM, DMSO = 100",112%
same,VEGF,[1]; [11],4708 pg/mL
same,VEGF,"[1]; 20 μM, DMSO = 100",80%
same,VEGF,"[1]; 20 μM, DMSO control 4197",3348 pg/mL
"COc1ccc(CCC(=O)CCc2ccc(OC)c(OC)c2)cc1OC [MD279U, 1,5-Bis(3,4-dimethoxyphenyl)penta-3-one]",TF,"[4]; 5 μM, DMSO = 100",102%
same,TF ELISA,"[4]; 5 μM, DMSO control 7054",7200 pg/ml/well
same,TF,"[4]; 20 μM, DMSO = 100",75%
same,TF ELISA,"[4]; 20 μM, DMSO control 7054",5316 pg/ml/well
same,TF,[4]; [9],7200 pg/mL
same,TF,[4]; [10],5316 pg/mL
same,"Neutral Red Uptake, %",RPMI-7951 human melanoma; 5 μM,100 % of control
same,Cell Viability,RPMI-7951 human melanoma; 5 μM,112%
same,"Neutral Red Uptake, %",RPMI-7951 human melanoma; 20 μM,100 % of control
same,Cell Viability,RPMI-7951 human melanoma; 20 μM,113%
same,VEGF,"[1]; 5 μM, DMSO = 100",28%
same,VEGF ELISA,[1]; 5 μM,2511 pg/ml/well
same,VEGF,[1]; [11],1197 pg/mL
same,VEGF,"[1]; 20 μM, DMSO = 100",18%
same,VEGF ELISA,[1]; 20 μM,779 pg/ml/well
same,VEGF,"[1]; 20 μM, DMSO control 4197",1179 pg/mL
COc1ccc(CCC(=O)CCc2ccc(OC)c(OC)c2)cc1OC [A],VEGF (% of DMSO),[2]; 20 μM,(82%)
same,VEGF,[2]; [7],1729 ± 59 pg/mL
same,VEGF,"[2]; Table 4, 20 μM, DMSO = 100",82%
same,VEGF,[2]; [6],1729 ± 59 pg/mL
same,VEGF (% of DMSO),[3]; 20 μM,(142%)
same,VEGF,[3]; [8],26565 ± 9818 pg/mL
same,VEGF,"[3]; Table 4, 20 μM, DMSO = 100",142%
same,VEGF,[3]; [6],26565 ± 9818 pg/mL
"O=C(C=Cc1ccc(F)c(F)c1)C=Cc1ccc(F)c(F)c1 [EF10, 1,5-Bis(3,4-difluorophenyl)penta-1,4-dien-3-one]",viability at 20 µM,RPMI-7951 human melanoma; [12],8%
same,viability at 20 µM,RPMI-7951 human melanoma; [5],54%
same,activity at 20 µM,[1],5%
same,VEGF ELISA,[1]; 20 μM,257 pg/ml/well
same,VEGF,"[1]; 20 μM, DMSO control 4197",217 pg/mL
COc1cc(CCC(=O)CC(=O)CCc2ccc(O)c(OC)c2)ccc1O [Compound A232],VEGF,"[2]; Table 4, 20 μM, DMSO = 100",93%
same,VEGF,[2]; [6],1955 ± 437 pg/mL
same,VEGF,"[3]; Table 4, 20 μM, DMSO = 100",135%
same,VEGF,[3]; [6],25308 ± 4722 pg/mL
same,Cell Viability,RPMI-7951 human melanoma; 20 μM,78%
same,VEGF,"[1]; 20 μM, DMSO = 100",40%
COc1ccc(CC2CCCC(Cc3ccc(OC)c(OC)c3)C2=O)cc1OC (centres unmarked) [C],VEGF (% of DMSO),[2]; 20 μM,(82%)
same,VEGF,[2]; [7],1734 ± 397 pg/mL
same,VEGF,"[2]; Table 4, 20 μM, DMSO = 100",82%
same,VEGF,[2]; [6],1734 ± 397 pg/mL
same,VEGF (% of DMSO),[3]; 20 μM,(110%)
same,VEGF,[3]; [8],20559 ± 9224 pg/mL
same,VEGF,"[3]; Table 4, 20 μM, DMSO = 100",110%
same,VEGF,[3]; [6],20559 ± 9224 pg/mL
COc1ccc(CNS(=O)(=O)NCc2ccc(OC)c(OC)c2)cc1OC [Compound A277a],VEGF,"[2]; Table 4, 20 μM, DMSO = 100",95%
same,VEGF,[2]; [6],2007 ± 30 pg/mL
same,VEGF,"[3]; Table 4, 20 μM, DMSO = 100",146%
same,VEGF,[3]; [6],27403 ± 3143 pg/mL
COc1ccc(C=CC(O)CCc2ccc(OC)c(OC)c2)cc1OC (centres unmarked) [Compound A239],VEGF,"[2]; Table 4, 20 μM, DMSO = 100",80%
same,VEGF,[2]; [6],1678 ± 293 pg/mL
same,VEGF,"[3]; Table 4, 20 μM, DMSO = 100",145%
same,VEGF,[3]; [6],27229 ± 2148 pg/mL
same,Cell Viability,RPMI-7951 human melanoma; 20 μM,86%
same,VEGF,"[1]; 20 μM, DMSO = 100",40%
"CN(C)/N=N/c1[nH]cnc1C(N)=O [Decabazine, Decarbazine, reference compound]",viability at 5 µM,RPMI-7951 human melanoma; [12],100%
same,viability at 20 µM,RPMI-7951 human melanoma; [12],100%
same,viability at 5 µM,RPMI-7951 human melanoma; [5],91%
same,viability at 20 µM,RPMI-7951 human melanoma; [5],99%
same,activity at 5 µM,[1],28%
same,activity at 20 µM,[1],31%
same,VEGF ELISA,[1]; 5 μM,1136 pg/ml/well
same,VEGF,[1]; [11],1171 pg/mL
same,VEGF ELISA,[1]; 20 μM,1531 pg/ml/well
same,VEGF,"[1]; 20 μM, DMSO control 4197",1293 pg/mL
COc1ccc(CCC(=O)CCc2ccc(OC)cc2)cc1 [BA-1],TF,"[4]; 20 μM, DMSO = 100",95%
same,TF,[4]; [10],6669 pg/mL
"Oc1ccccc1CCC(O)CCc1ccccc1O [EF32, 1,5-Bis(2-hydroxyphenyl)-pentan-3-ol]",TF,"[4]; 20 μM, DMSO = 100",123%
same,TF,[4]; [10],8654 pg/mL
COc1ccc(CNC(=O)NCc2ccc(OC)c(OC)c2)cc1OC [Compound A277b],VEGF,"[2]; Table 4, 20 μM, DMSO = 100",89%
same,VEGF,[2]; [6],1868 ± 38 pg/mL
same,VEGF,"[3]; Table 4, 20 μM, DMSO = 100",145%
same,VEGF,[3]; [6],27124 ± 1346 pg/mL
COc1cc(CC2CCCC(Cc3ccc(O)c(OC)c3)C2O)ccc1O (centres unmarked) [Compound A231L],VEGF,"[2]; Table 4, 20 μM, DMSO = 100",80%
same,VEGF,[2]; [6],1687 ± 250 pg/mL
same,VEGF,"[3]; Table 4, 20 μM, DMSO = 100",149%
same,VEGF,[3]; [6],27927 ± 4466 pg/mL
same,Cell Viability,RPMI-7951 human melanoma; 20 μM,77%
same,VEGF,"[1]; 20 μM, DMSO = 100",25%
"O=C1CCC(N2C(=O)c3ccccc3C2=O)C(=O)N1 (centres unmarked) [Thalidomide, reference compound]",viability at 5 µM,RPMI-7951 human melanoma; [12],100%
same,viability at 20 µM,RPMI-7951 human melanoma; [12],100%
same,viability at 5 µM,RPMI-7951 human melanoma; [5],105%
same,viability at 20 µM,RPMI-7951 human melanoma; [5],97%
same,activity at 5 µM,[1],44%
same,activity at 20 µM,[1],57%
same,VEGF ELISA,[1]; 5 μM,1810 pg/ml/well
same,VEGF,[1]; [11],1865 pg/mL
same,VEGF ELISA,[1]; 20 μM,2827 pg/ml/well
same,VEGF,"[1]; 20 μM, DMSO control 4197",2387 pg/mL
"O=C(C=Cc1ccccc1F)C=Cc1ccccc1F [EF8, 1,5-Bis(2-fluorophenyl)penta-1,4-dien-3-one]",viability at 5 µM,RPMI-7951 human melanoma; [12],97%
same,viability at 20 µM,RPMI-7951 human melanoma; [12],8%
same,viability at 5 µM,RPMI-7951 human melanoma; [5],94%
same,viability at 20 µM,RPMI-7951 human melanoma; [5],54%
same,activity at 5 µM,[1],54%
same,activity at 20 µM,[1],1%
same,VEGF ELISA,[1]; 5 μM,2208 pg/ml/well
same,VEGF,[1]; [11],2276 pg/mL
same,VEGF ELISA,[1]; 20 μM,319 pg/ml/well
same,VEGF,"[1]; 20 μM, DMSO control 4197",35 pg/mL
COc1ccccc1C1CC(=O)CC(c2ccccc2OC)O1 (centres unmarked) [BA-8],VEGF (% of DMSO),[2]; 20 μM,(78%)
same,VEGF,[2]; [7],1648 ± 229 pg/mL
same,VEGF,"[2]; Table 4, 20 μM, DMSO = 100",78%
same,VEGF,[2]; [6],1648 ± 229 pg/mL
same,VEGF (% of DMSO),[3]; 20 μM,(218%)
same,VEGF,[3]; [8],40883 ± 6639 pg/mL
same,VEGF,"[3]; Table 4, 20 μM, DMSO = 100",218%
same,VEGF,[3]; [6],40883 ± 6639 pg/mL
"[O-][S+](/C=C/c1ccccc1)/C=C/c1ccccc1 [EF13, E,E-3,5-Bisbenzylidenesulfoxide]",Cell Viability,RPMI-7951 human melanoma; 20 μM,92%
same,VEGF,"[1]; 20 μM, DMSO = 100",53%
"[O-][S+](/C=C\c1ccccc1)/C=C/c1ccccc1 (racemic) [EF14, E,Z3,5-Bisbenzylidenesulfoxide]",Cell Viability,RPMI-7951 human melanoma; 20 μM,86%
same,VEGF,"[1]; 20 μM, DMSO = 100",36%
"O=S(=O)(/C=C/c1ccccc1)/C=C/c1ccccc1 [EF12, 3,5-Bisbenzylidenesulfone]",Cell Viability,RPMI-7951 human melanoma; 20 μM,92%
same,VEGF,"[1]; 20 μM, DMSO = 100",70%
O=C(NCc1ccccc1)NCc1ccccc1 [Compound A271a],VEGF (% of DMSO),[2]; 20 μM,(57%)
same,VEGF,[2]; [7],1196 ± 438 pg/mL
same,VEGF,"[2]; Table 4, 20 μM, DMSO = 100",57%
same,VEGF,[2]; [6],1196 ± 438 pg/mL
same,VEGF (% of DMSO),[3]; 20 μM,(129%)
same,VEGF,[3]; [8],24190 ± 2160 pg/mL
same,VEGF,"[3]; Table 4, 20 μM, DMSO = 100",129%
same,VEGF,[3]; [6],24190 ± 2160 pg/mL
